Measurements from US20250339569A1, “CARBONIC ANHYDRASE IX LIGANDS” (priority 2021, published 2025).
Like-named read-outs stand apart in the source and are kept apart here. Starred links: 1 amine or outer side, 2 acyl side, 3 side chain; linkers in the order of their positions; H or OH if unused. Positions of bridges follow the written chain, without caps; N, C: chain ends. Non-standard residues stand in square brackets, D forms with d. Residues, ends and D or L forms follow the SMILES beside them. *: point of attachment. X47 = NC(=O)[C@H](CCCCNC(=O)CCCC[C@@H]1SC[C@@H]2NC(=O)N[C@@H]21)NC(=O)CCC(=O)NCCCOCCOCCOCCCN*; X69 = CC1(C)C(/C=C/C=C/C=C2\N(CCCCS(=O)(=O)O)c3ccccc3C2(C)C)=[N+](CCCCCC(=O)*)c2ccccc21; X4 = CS(=O)(=O)CC(=O)Nc1cccc(C[C@H](N[*:1])C(=O)[*:2])c1; DOTA = O=C(O)CN1CCN(CC(=O)O)CCN(CC(=O)*)CCN(CC(=O)O)CC1; X5 = O=C(O)CCCC(=O)Nc1cccc(C[C@H](N[*:1])C(=O)[*:2])c1; X6 = O=C(O)CCC(=O)Nc1cccc(C[C@H](N[*:1])C(=O)[*:2])c1; mXylylene = c1cc(C[*:1])cc(C[*:2])c1; X2 = O=C(CN1CCC(N[*:1])CC1)[*:2]; Dap = NC[C@H](N)C(=O)O

What was measured:
[1] = molecular target: T1, CAIX-expressing human HT-29 colorectal cancer cells (Homo sapiens, UniProt Q16790); assay: FACS binding assay (EC50 determination, labeled compound); conditions: biotinylated or fluorophore-labeled compound, HT-29 cells, 4°C, 1 hour, read-out: pEC50 category (activity) (converted)
T1 construct: CAIX-expressing human HT-29 colorectal cancer cells; host or cells: HT-29 human colorectal cancer cells
Procedure: In order to determine binding of compounds according to the present invention to CAIX-expressing cells, a FACS binding assay was established.
CAIX-expressing human HT-29 colorectal cancer cells (DSMZ, RRID: CVCL_0320) were cultured in McCoys's 5A modified medium (Biochrom, #F1015) including 10% fetal calf serum (FCS), 2 mM L-glutamine, 100 U/ml penicillin and 100 μg/mL streptomycin. Cells were detached with Accutase (Biolegend, #423201) and washed in FACS buffer (PBS including 1% FCS). Cells were diluted in FACS buffer to a final concentration of 500.000 cells per ml. 200 μL of the cell suspension were transferred to a u-shaped non-binding 96-well plate (Greiner) and cells were washed in ice-cold FACS buffer.
When biotinylated compounds were used an additional incubation step with 1 μg/mL APC-Streptavidin (Miltenyi; #130-106-791) in 50 μL FACS buffer for 30 minutes on ice was performed.
Cells were washed twice with ice-cold FACS buffer and analyzed in an Attune NxT flow cytometer (Thermo Fisher). Median fluorescence intensities (MFI) of the APC/Cy5-channel were calculated by Attune NxT software. MFI values were plotted against peptide concentration and four parameter logistic (4PL) curve fitting and EC50/pEC50 or IC50/pIC50 calculations were performed using ActivityBase software.

[2] = molecular target: T1, CAIX-expressing human HT-29 colorectal cancer cells; assay: FACS binding assay (IC50 determination, competition with tracer 3BP-2776 or 3BP-4149); conditions: FACS binding assay, HT-29 cells, 4° C., 1 hour, read-out: pIC50 category (activity) (converted)
Summary of the method: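 HT-29 cells in FACS buffer (PBS, 1% FCS) at 500.000 cells/ml were exposed to compounds competing with a labelled tracer, with biotinylated compounds detected by 1 μg/mL APC-streptavidin for 30 min on ice. APC/Cy5 median fluorescence was read by flow cytometry and IC50 derived by 4PL fit.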

CAXII (hCAXII-bio) = molecular target: T2, CAXII (hCAXII-bio) (Homo sapiens, UniProt O43570); assay: SPR selectivity assay with biotinylated CAXII; format: binding; conditions: SPR, biotinylated CAXII; read-out: pKD category (affinity) CAXII (converted)
T2 construct: purchased SinoBliological (Sino Biological) 10617-H08H
T2 sequence (O43570 25-354): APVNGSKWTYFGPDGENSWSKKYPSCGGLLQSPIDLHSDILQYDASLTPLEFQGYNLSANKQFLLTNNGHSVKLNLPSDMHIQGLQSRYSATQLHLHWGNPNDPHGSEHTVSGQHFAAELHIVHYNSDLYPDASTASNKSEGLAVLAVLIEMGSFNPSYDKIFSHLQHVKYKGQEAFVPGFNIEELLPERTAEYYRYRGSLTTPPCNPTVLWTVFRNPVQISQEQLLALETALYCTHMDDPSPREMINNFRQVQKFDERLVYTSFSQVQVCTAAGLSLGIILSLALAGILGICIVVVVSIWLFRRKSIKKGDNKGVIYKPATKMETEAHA
Procedure: (§1) In order to test selectivity of CAIX-binding peptides toward CAIV (SinoBliological, Cat #10472-1H081H), CAXII (SinoBliological, Cat #10617-H08H or CAXIV (SinoBliological, Cat #10458-H08H), SPR assays were performed analog to the assay described above but with a different target capture procedure. For immobilization, the carbonic anhydrases were biotinylated and capture on the SPR chip using the Biotin CAPture Kit (cytiva) according to the manufacturer instructions using HBSTE, 0.1% as Running Buffer.
(§2) Table 13 describes the protocol steps for biotinylated target capturing and assessment of the binding kinetics.

[3] = Plasma stability assay, mouse plasma; conditions: mouse plasma, 37°C, 24 h
CAIV (hCAIV-bio) = molecular target: T3, CAIV (hCAIV-bio) (Homo sapiens, UniProt P22748); assay: SPR selectivity assay with biotinylated CAIV; format: binding; conditions: SPR, biotinylated CAIV; read-out: pKD category (affinity) CAIV (converted)
T3 construct: purchased SinoBliological (Sino Biological) 10472-1H081H
T3 sequence (P22748 19-284): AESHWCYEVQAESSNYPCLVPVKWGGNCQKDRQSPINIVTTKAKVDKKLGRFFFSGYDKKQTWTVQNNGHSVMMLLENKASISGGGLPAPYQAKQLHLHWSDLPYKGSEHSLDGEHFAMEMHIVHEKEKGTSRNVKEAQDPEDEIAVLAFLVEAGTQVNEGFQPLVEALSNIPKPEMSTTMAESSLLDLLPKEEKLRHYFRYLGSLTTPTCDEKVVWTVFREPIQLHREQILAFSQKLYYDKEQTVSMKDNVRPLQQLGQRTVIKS
Procedure: as §1, §2

[4] = molecular target: T4, human carbonic anhydrase IX (hCAIX-Fc) (Homo sapiens, UniProt Q16790); assay: Surface plasmon resonance assay with hCAIX-Fc; format: binding; conditions: 25° C.; for t1/2 category (activity): SPR dissociation half-life, hCAIX-Fc; for Kd: SPR, hCAIX-Fc captured, read-out: pKD category (activity) (converted)
T4 construct: purchased SinoBliological (Sino Biological) 10107-H02H

CAXIV (hCAXIV-bio) = molecular target: T5, CAXIV (hCAXIV-bio) (Homo sapiens, UniProt Q9ULX7); assay: SPR selectivity assay with biotinylated CAXIV; format: binding; conditions: SPR, biotinylated CAXIV; read-out: pKD category (affinity) CAXIV (converted)
T5 construct: purchased SinoBliological (Sino Biological) 10458-H08H
T5 sequence (Q9ULX7 16-337): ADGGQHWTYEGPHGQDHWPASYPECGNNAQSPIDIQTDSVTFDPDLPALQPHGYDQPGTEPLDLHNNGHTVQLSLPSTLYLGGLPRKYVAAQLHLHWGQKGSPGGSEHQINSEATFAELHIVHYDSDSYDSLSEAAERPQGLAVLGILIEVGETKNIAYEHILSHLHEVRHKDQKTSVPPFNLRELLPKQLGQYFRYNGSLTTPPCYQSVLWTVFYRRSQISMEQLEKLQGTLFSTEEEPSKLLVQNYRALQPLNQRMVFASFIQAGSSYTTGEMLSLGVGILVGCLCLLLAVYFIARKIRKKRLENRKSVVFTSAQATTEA
Procedure: as §1, §2

[5] = mouse, plasma, 24 h
[6] = competition with tracer 3BP-2776 (10 nM, biotin-labeled)

| Compound | EC50 [1] [nM] | IC50 [2, 6] [nM] | t1/2 category (activity) [4] | Kd [4] [nM] | % intact compound remaining (incubation time) [5] [%] | also measured |
| --- | --- | --- | --- | --- | --- | --- |
| CC(C)C[C@@H]1NC(=O)[C@H](Cc2c[nH]c3ccccc23)NC(=O)[C@H](CC(=O)O)NC(=O)[C@H]2CCCN2C(=O)[C@H](CCC(=O)O)NC(=O)[C@@H]2CSCc3cccc(c3)CSC[C@@H](C(N)=O)NC(=O)[C@H](CNC(=O)C[C@H](NC(=O)[C@@H](NC(=O)CN3CCC(NC(=O)CN4CCN(CC(=O)O)CCN(CC(=O)O)CCN(CC(=O)O)CC4)CC3)C(C)C)C(=O)N2)NC(=O)[C@H](Cc2c[nH]c3ccccc23)NC(=O)[C@H]([C@@H](C)O)NC1=O [3BP-4174, DOTA-APAc-Val-{Asp-[Cys(3MeBn)-Glu-pro-Asp-Trp-Leu-Thr-Trp-Dap}-Cys]-NH2] ({DOTA}-[X2]VDCE[dP]DWLTW[Dap]C-NH2; lactam 3-12; linker 4-13 via mXylylene) | – | < 10 | A (t1/2>15.0 minutes) | < 10 | – | Kd (CAXII (hCAXII-bio)): > 1000 nM; % intact compound remaining (incubation time) [3]: >95%; Kd (CAIV (hCAIV-bio)): > 1000 nM; Kd (CAXIV (hCAXIV-bio)): > 1000 nM |
| CC(C)C[C@@H]1NC(=O)[C@H](Cc2cccc(NC(=O)CCC(=O)O)c2)NC(=O)[C@H](CC(=O)O)NC(=O)[C@H]2CCCN2C(=O)[C@H](CCC(=O)O)NC(=O)[C@@H](NC(=O)[C@H](Cc2ccc(O)cc2)NC(=O)[C@@H](NC(=O)CN2CCC(NC(=O)CN3CCN(CC(=O)O)CCN(CC(=O)O)CCN(CC(=O)O)CC3)CC2)C(C)C)CSCc2cccc(c2)CSC[C@@H](C(N)=O)NC(=O)[C@H](CO)NC(=O)[C@H](Cc2c[nH]c3ccccc23)NC(=O)[C@H]([C@@H](C)O)NC1=O [3BP-4237, DOTA-APAc-Val-Tyr-[Cys(3MeBn)-Glu-pro-Asp-Af3(HO-Succinyl)-Leu-Thr-Trp-Ser-Cys]-NH2] ({DOTA}-[X2]VYCE[dP]D[X6]LTWSC-NH2; linker 4-13 via mXylylene) | – | < 10 | A (t1/2>15.0 minutes) | < 10 | >95 | – |
| CC(C)C[C@@H]1NC(=O)[C@H](Cc2cccc(NC(=O)CS(C)(=O)=O)c2)NC(=O)[C@H](CC(=O)O)NC(=O)[C@H]2CCCN2C(=O)[C@H](CCC(=O)O)NC(=O)[C@@H](NC(=O)[C@H](Cc2ccc(O)cc2)NC(=O)[C@@H](NC(=O)CN2CCC(NC(=O)CN3CCN(CC(=O)O)CCN(CC(=O)O)CCN(CC(=O)O)CC3)CC2)C(C)C)CSCc2cccc(c2)CSC[C@@H](C(N)=O)NC(=O)[C@H](CO)NC(=O)[C@H](Cc2c[nH]c3ccccc23)NC(=O)[C@H]([C@@H](C)O)NC1=O [3BP-4242] ({DOTA}-[X2]VYCE[dP]D[X4]LTWSC-NH2; linker 4-13 via mXylylene) | – | < 10 | B (t1/2 between 5.1 and 15.0 minutes) | < 10 | >95 | – |
| CC(C)C[C@@H]1NC(=O)[C@H](Cc2cccc(NC(=O)CCCC(=O)O)c2)NC(=O)[C@H](CC(=O)O)NC(=O)[C@H]2CCCN2C(=O)[C@H](CCC(=O)O)NC(=O)[C@@H](NC(=O)[C@H](Cc2ccc(O)cc2)NC(=O)[C@@H](NC(=O)CN2CCC(NC(=O)CN3CCN(CC(=O)O)CCN(CC(=O)O)CCN(CC(=O)O)CC3)CC2)C(C)C)CSCc2cccc(c2)CSC[C@@H](C(N)=O)NC(=O)[C@H](CO)NC(=O)[C@H](Cc2c[nH]c3ccccc23)NC(=O)[C@H]([C@@H](C)O)NC1=O [3BP-4367] ({DOTA}-[X2]VYCE[dP]D[X5]LTWSC-NH2; linker 4-13 via mXylylene) | – | – | A (t1/2>15.0 minutes) | < 10 | >95 | IC50 ([2]; competition with tracer 3BP-4149 (3 nM, Cy5-labeled)): < 10 nM |

Further lines, with some results ahead:

| EC50 [1] [nM] | IC50 [2, 6] [nM] | t1/2 category (activity) [4] | Kd [4] [nM] | % intact compound remaining (incubation time) [5] [%] | Compound | also measured |
| --- | --- | --- | --- | --- | --- | --- |
| 10 to 79.4 | – | – | – | – | CC[C@H](C)[C@@H]1NC(=O)[C@H](CCC(=O)O)NC(=O)[C@@H](NC(=O)[C@H](CCC(N)=O)NC(=O)[C@@H](N)CCSC)CSCc2cccc(c2)CSC[C@@H](C(=O)NCCCOCCOCCOCCCNC(=O)CCC(=O)N[C@@H](CCCCNC(=O)CCCC[C@@H]2SC[C@@H]3NC(=O)N[C@@H]32)C(N)=O)NC(=O)[C@H]([C@@H](C)O)NC(=O)[C@H](C(C)C)NC(=O)[C@H](Cc2c[nH]c3ccccc23)NC(=O)CNC(=O)[C@H](CC(=O)O)NC(=O)[C@H](C(C)C)NC(=O)[C@H](Cc2c[nH]c3ccccc23)NC1=O [3BP-2775] (H-MQCEIWVDGWVTC-X47; linker 3-13 via mXylylene) | – |
| < 10 | – | – | – | – | CSCC[C@H](N)C(=O)N[C@H](C(=O)N[C@@H](Cc1ccc(O)cc1)C(=O)N[C@H]1CSCc2cccc(c2)CSC[C@@H](C(=O)NCCCOCCOCCOCCCNC(=O)CCC(=O)N[C@@H](CCCCNC(=O)CCCC[C@@H]2SC[C@@H]3NC(=O)N[C@@H]32)C(N)=O)NC(=O)[C@H](CCC(N)=O)NC(=O)[C@H](Cc2c[nH]c3ccccc23)NC(=O)[C@H]([C@@H](C)O)NC(=O)[C@H](CC(C)C)NC(=O)[C@H](Cc2c[nH]c3ccccc23)NC(=O)[C@H](CC(=O)O)NC(=O)CNC(=O)[C@H](CCC(=O)O)NC1=O)C(C)C [3BP-2776] (H-MVYCEGDWLTWQC-X47; linker 4-13 via mXylylene) | – |
| < 10 | – | – | – | – | CSCC[C@H](N)C(=O)N[C@H](C(=O)N[C@@H](Cc1ccc(O)cc1)C(=O)N[C@H]1CSCc2cccc(c2)CSC[C@@H](C(=O)NCCCOCCOCCOCCCNC(=O)CCC(=O)N[C@@H](CCCCNC(=O)CCCC[C@@H]2SC[C@@H]3NC(=O)N[C@@H]32)C(N)=O)NC(=O)[C@H](CO)NC(=O)[C@H](Cc2c[nH]c3ccccc23)NC(=O)CNC(=O)[C@H](CC(C)C)NC(=O)[C@H](Cc2c[nH]c3ccccc23)NC(=O)[C@H](CO)NC(=O)CNC(=O)[C@H](CCC(=O)O)NC1=O)C(C)C [3BP-2777] (H-MVYCEGSWLGWSC-X47; linker 4-13 via mXylylene) | – |
| < 10 | – | – | – | – | CC[C@H](C)[C@@H]1NC(=O)[C@H](CCC(=O)O)NC(=O)[C@@H](NC(=O)[C@H](CCCNC(=N)N)NC(=O)[C@@H](N)CCSC)CSCc2cccc(c2)CSC[C@@H](C(=O)NCCCOCCOCCOCCCNC(=O)CCC(=O)N[C@@H](CCCCNC(=O)CCCC[C@@H]2SC[C@@H]3NC(=O)N[C@@H]32)C(N)=O)NC(=O)[C@H](CC(=O)O)NC(=O)[C@H](C(C)C)NC(=O)[C@H](Cc2c[nH]c3ccccc23)NC(=O)CNC(=O)[C@H](CC(=O)O)NC(=O)[C@H](C(C)C)NC(=O)[C@H](Cc2c[nH]c3ccccc23)NC1=O [3BP-2778] (H-MRCEIWVDGWVDC-X47; linker 3-13 via mXylylene) | – |
| < 10 | – | – | – | – | CC(C)C[C@@H]1NC(=O)[C@H](Cc2c[nH]c3ccccc23)NC(=O)[C@H](CC(=O)O)NC(=O)[C@H]2CCCN2C(=O)[C@H](CCC(=O)O)NC(=O)[C@@H](NC(=O)[C@H](Cc2ccc(O)cc2)NC(=O)[C@@H](NC(=O)CN2CCC(NC(=O)CCCCC[N+]3=C(/C=C/C=C/C=C4\N(CCCCS(=O)(=O)O)c5ccccc5C4(C)C)C(C)(C)c4ccccc43)CC2)C(C)C)CSCc2cccc(c2)CSC[C@@H](C(N)=O)NC(=O)[C@H](CO)NC(=O)[C@H](Cc2c[nH]c3ccccc23)NC(=O)[C@H]([C@@H](C)O)NC1=O [3BP-4149, Cy5SO3-APAc-Val-Tyr-[Cys(3MeBn)-Glu-pro-Asp-Trp-Leu-Thr-Trp-Ser-Cys]-NH2] (X69-[X2]VYCE[dP]DWLTWSC-NH2; linker 4-13 via mXylylene) | – |
